Consider 5 molecules from article PMC9276676, “Difluoromethylornithine (DFMO) and AMXT 1501 inhibit capsule biosynthesis in pneumococci” (Scientific Reports, 2022).

The subject of experiment [1] is D39 (serotype 2) capsule. Put plainly: Total capsular polysaccharide (CPS) immunoblot with densitometry. The format is cell-based, Streptococcus pneumoniae. The conditions noted are these: D39; for total CPS (capsule) by immunoblot: DFMO 1/8 MIC 34 mM, agmatine 1/4 MIC 20 mM, AMXT 1501 1/2 MIC 7.4 µM, alone or with agmatine. How it is done:
(§1) S. pneumoniae strains were cultured with DFMO and AMXT 1501 at varying final concentrations of 1/2, 1/4, and 1/8 MIC to OD600 0.2–0.3 either individually or together to estimate any additive or synergistic effects. Capsular polysaccharides (CPS) were extracted and quantified in triplicate, as described previously[26] with slight modification. Briefly, CPS was extracted in a lysis buffer (4% deoxycholate, 50 µg/mL DNAse I and 50 µg/mL RNAse A) at 37 °C for 10 min and centrifuged at 18,000×g for 10 min. The supernatant (2 µL) was spotted on a 0.2-µm-pore-size nitrocellulose membrane (Thermo Fisher Scientific, Waltham, MA, USA) and oven dried at 60 °C for 15 min. The membranes were blocked and incubated with different types of antisera for capsule detection: antisera type- 4 (for TIGR4), 2 (for D39), polyclonal (for EF3030) and 3 (for WU2) (Cedarlane, Burlington, NC, USA). A conjugated polyclonal goat anti-rabbit IgG-HRP (Agilent Technologies, Santa Clara, CA, USA) was used for enhanced chemiluminescence (ECL) detection in all the strains (Thermo Fisher Scientific, Waltham, MA, USA) and scanned using a ChemiDoc XRS+ with Image Lab software (Bio-Rad, Hercules, CA, USA). Densitometry analysis of the immunoblot was done with NIH ImageJ software.
(§2) We determined the impact of varying concentrations of DFMO (1/8 to 1/2 MIC) on CPS in all serotypes (2, 4, 19F, and 3) used in this study. […] D39 was treated with 1/8 MIC DFMO alone, 1/4 MIC agmatine (Agm) alone, a combination of 1/8 MIC DFMO and 1/4 MIC Agm, and a control without DFMO or Agm. CPS was extracted as described in the previous section and immunoblot analysis with type 2 antisera was performed to detect CPS semi-quantitatively.

In experiment [2] the test system is S. pneumoniae serotype 2 (D39). Put plainly: DFMO susceptibility and growth in THY (OD600, MIC). The experiment is classed as cell-based, Streptococcus pneumoniae. To be noted: Streptococcus pneumoniae. On the procedure:
S. pneumoniae serotypes 4 (TIGR4), 2 (D39), 19F (EF3030) and 3 (WU2) were cultured in Todd Hewitt broth supplemented with yeast extract (THY). Supplementation with DFMO ranging from 1.1 to 549 mM was carried out in triplicate in a 96-well plate and incubated at 37 °C and 5% CO2 in a Cytation™ 5 cell imaging multi-mode reader (BioTek, Winooski, VT). The change in optical density at 600 nm (OD600) was measured every hour for 24 h and used to determine the minimum inhibitory concentration (MIC) of DFMO. The optical density data was analyzed using GrowthRates 4.0 software. To determine whether DFMO at sub-MIC is bacteriostatic or lethal to pneumococcal cells, all strains were cultured in the presence or absence of 1/2 MIC DFMO. OD600 was measured every hour and CFU were enumerated on a blood agar plate (BAP) every 2 h over an 8 h incubation period.

Experiment [3] deals with T1, SP_0916 (arginine decarboxylase, ADC) (Streptococcus pneumoniae, UniProt A0A0H2UPK4). To be noted: Km of the enzyme for the decarboxylase substrate; rows named by product; previously reported ref 18; cited from earlier work.
Experiment [4] relates to S. pneumoniae D39. The experiment is classed as cell-based, Streptococcus pneumoniae. How it is done:
This was done to directly compare possible changes in intracellular concentrations of polyamines and capsule precursors as a result of DFMO inhibition of polyamine synthesis to the earlier report where polyamine synthesis was affected via gene deletion in TIGR4[24]. […] Cells were harvested (5000×g, 10 min, 4 °C), re-suspended in extraction solvent [40% acetonitrile, 40% methanol, 20% water with formic acid (0.1 M)] and transferred to bead-beater tubes (MP Biomedicals, Irvine, CA, USA). Cells were lysed using a FastPrep-24™ Classic (45 s, 6.5 m/s, RT, 3 times) (MP Biomedicals, Irvine, CA, USA) and incubated on ice (5 min after each spin). TIGR4 lysates were clarified (6000×g, 5 min, 4 °C), and metabolite differentiation and detection were performed using published protocols[28],[29]. Liquid chromatography-mass spectrometry-based (LC–MS) metabolomic analysis was performed with an Agilent Accurate Mass 6230 TOF coupled with an Agilent 1290 LC system using a Cogent Diamond Hydride Type C column. Briefly, the mobile phase consisted of the following: solvent A (ddH2O with 0.2% formic acid) and solvent B (acetonitrile with 0.2% formic acid). The gradient used was as follows: 0–2 min, 85% B; 3–5 min, 80% B; 6–7 min, 75% B; 8–9 min, 70% B; 10–11.1 min, 50% B; 11.1–14 min 20% B; 14.1–24 min 5% B followed by a 10 min re-equilibration period at 85% B at a flow rate of 0.4 mL/min. Mass axis dynamics was calibrated by continuous infusion of a reference mass solution using an isocratic pump. […] Metabolite identities were searched for using a mass tolerance of < 0.005 Da. Metabolite concentrations from the 5 biological replicates were normalized to biomass based on measurement of residual peptide content in individual samples using the Pierce BCA Protein Assay kit (Thermo Fisher Scientific, Waltham, MA, USA). Data were analyzed using Profinder B.07.00 software (Agilent Technologies, Santa Clara, CA, USA). Extracted molecular features detected in the mass analyzer were identified using accurate mass values and used to generate empirical molecular formulae using an in-house metabolite database that included known intermediates, amino acid precursors and polyamines and their derivatives. Statistical analysis of metabolite peak intensity data was performed using MetaboAnalyst 4.0[30]. Data were normalized (quantile), log transformed and significant fold change between WT and DFMO-treated WT were identified by Student’s t-test (p ≤ 0.05).
To measure the polyamines, glucose and glucuronic acid in D39, TSQ Quantum Access triple-quadrupole tandem mass spectrometer (Thermo Fisher Scientific, Waltham, MA, USA) equipped with acquity UPLC system (Waters, Milford, MA, USA) was operated in positive and negative ion mode. Chromatographic separation was performed on Cogent Diamond Hydride HPLC column (2.1 mm × 150 mm, 4 μm) coupled with Congent Diamond Hydride HPLC Guard column (2.0 mm × 10 mm, 4 μm). The flow rate was 500 µL/min, the sample injection volume was 10 µL, and the column temperature was at 40 °C. The mobile phase A was composed of water with 0.1% v/v formic acid, and mobile phase B was composed of acetonitrile with 0.1% v/v formic acid. The gradient condition was 0 min (5% A, 95% B), 1 min (5% A, 95% B), 4.0 min (30% A, 70% B), 6 min (95% A, 5% B), 6.5 min (95% A, 5% B), 7 min (5% A, 95% B), and 10 min (5% A, 95%B). The total run time was 10 min, and the column eluate directed into the mass spectrometer using an electrospray ionization interface in positive and negative modes. The MS conditions were set as follow: spray voltage = 3500 V, vaporizer temperature = 350 °C, sheath gas = 25 psi, auxiliary gas = 10 psi, and capillary temperature = 350 °C. Samples were run in selected reaction monitoring (SRM) mode, and the optimized MS/MS parameters for ionization are given in Table 1.

In experiment [5] the test system is EF3030 (serotype 19F) capsule. Put plainly: Total capsular polysaccharide (CPS) immunoblot with densitometry. The experiment is classed as cell-based, Streptococcus pneumoniae. To be noted: serotype 19F; AMXT 1501 at 1/2 MIC. On the procedure:
as §1, §2
In general terms: Immunoblotting shows a protein as a band on a membrane.

Experiment [6] concerns TIGR4 (serotype 4) capsule. The experiment is described as above. The format is cell-based, Streptococcus pneumoniae. To be noted: serotype 4; AMXT 1501 at 1/2 MIC. On the procedure:
as §1, §2

Experiment [7] concerns WU2 (serotype 3) capsule. The description is as above. The experiment is classed as cell-based, Streptococcus pneumoniae. The conditions noted are these: serotype 3; AMXT 1501 at 1/2 MIC. How it is done: as §1, §2
For experiment [8], the target named is T1, SP_0916 (arginine decarboxylase, ADC). The experiment is described as follows: Inhibition of decarboxylase activities of recombinant SP_0916 (LC-MS). The format is biochemical. The conditions noted are these: read-out: DFMA IC50. The text has this: We determined the impact of DFMO (ODC/ADC inhibitor) and α-difluoromethylarginine (DFMA, an ADC inhibitor) on the decarboxylase activities of SP_0916. BL21(DE3) cells expressing recombinant His tag SP_0916 were lysed with B-PER reagent buffer (Thermo Fisher Scientific, Waltham, MA, USA), lysate separated by loading unto HisPur Cobalt Spin Column (Thermo Fisher Scientific, Waltham, MA, USA), desalted using Sephadex G-25 PD-10 column (GE Healthcare, Chicago, IL, USA), and protein concentration estimated using the Pierce BCA Protein Assay kit (Thermo Fisher Scientific, Waltham, MA, USA).
SP_0916-encoded protein (0.926 µmol L^−1) was mixed with 10 mM substrate (arginine, lysine or ornithine) in the reaction mixture (500 µL reaction volume, 50 mM Tris–HCl, pH 8.0) that contains 2.5 mM MgSO4 and 0.6 mM PLP. DFMO was diluted in water to 3–900 mM and added to the reaction mixture after 5 min preincubation at 37 °C in the dark. DFMA stock was made in a similar manner but was diluted in water to 0.3–1000 µM. The enzyme and inhibitor were incubated at 37 °C for 15 min in the dark and the reaction terminated with 0.3 M perchloric acid. After incubation on ice for 15 min, the samples were neutralized with 25 µL of 10 N KOH and extracted with 1 mL of 1-butanol. The organic layer was dried under nitrogen gas and reconstituted with 100 µL of water containing Spermidine-d8 and Glucose-d7 as an internal standard. Analysis of the extracts was performed on a Surveyor LC–MS system. 5 µL of reconstitution was injected to the LC–MS system for detection of the products (agmatine, cadaverine or putrescine). We used internal standards to normalize and determine the peak intensity (area ratio) for each metabolite detected. Enzyme activity without inhibitor is referred to as a control activity. All experiments were performed in triplicate. The concentration of inhibitor that inhibited 50% of the control activity (IC50 value) was determined by varying the concentration of the indicated DFMO or DFMA and measuring the decarboxylase activity. Sigma Plot v. 12 was used to fit the curve through the points and IC50 values were interpolated from the fitted curve.

[9] abbreviates: DFMO 34 mM, agmatine 20 mM, AMXT 1501 7.4 µM, p-value in bracket omitted.

Values after ≈ are worked out from the molar mass of the structure shown. Read-outs that look alike come from different tables or passages of the source.

T1 sequence (A0A0H2UPK4 entry or part of it): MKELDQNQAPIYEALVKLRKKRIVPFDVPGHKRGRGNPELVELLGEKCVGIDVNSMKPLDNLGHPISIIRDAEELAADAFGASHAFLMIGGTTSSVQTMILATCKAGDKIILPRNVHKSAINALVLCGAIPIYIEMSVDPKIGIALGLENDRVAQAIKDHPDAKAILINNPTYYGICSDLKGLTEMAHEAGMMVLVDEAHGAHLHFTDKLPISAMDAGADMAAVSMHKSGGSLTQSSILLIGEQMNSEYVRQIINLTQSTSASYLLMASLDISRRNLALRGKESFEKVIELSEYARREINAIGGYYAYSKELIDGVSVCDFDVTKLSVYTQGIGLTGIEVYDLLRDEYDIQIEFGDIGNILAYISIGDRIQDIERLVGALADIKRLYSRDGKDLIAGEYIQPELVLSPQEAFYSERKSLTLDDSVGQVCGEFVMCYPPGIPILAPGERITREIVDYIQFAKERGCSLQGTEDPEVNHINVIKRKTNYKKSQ

As for `NCCCCN=C(N)N` [Agmatine, agmatine], the “total CPS (capsule) by immunoblot” value in experiment [1] was “does not impact the capsule”. Also, in experiment [2] (D39, concentration equal to a quarter of the MIC, read-out: 1/4 MIC), the MIC worked out at 20000 µM (≈ 2600 µg/mL). Further, in experiment [3], the Michaelis-Menten constant (Km) (commonly the concentration of substrate that gives half-maximal velocity) is 110 ± 20 µM. In experiment [4] (setting [9]), the “Agmatine, fold change treated D39 /D39” value is on record as 10.2 (1.61E-06); the “Cadaverine, fold change treated D39 /D39” value is -0.3 (0.204); the “Lysine, fold change treated D39 /D39” value is 0.1 (0.048); the “N-acetyl spermidine, fold change treated D39 /D39” value is on record as 0.8 (0.009). Besides, in experiment [4] (setting [9]), the “N-carbamoyl putrescine, fold change treated D39 /D39” value is reported as 9.6 (1.58E-05); the “Ornithine, fold change treated D39 /D39” value is reported as 0.1 (0.149); the “Putrescine, fold change treated D39 /D39” value was 3.3 (0.004); the “Spermidine, fold change treated D39 /D39” value is reported as 0.6 (0.283). Also, the “Spermine, fold change treated D39 /D39” value in experiment [4] (setting [9]) is on record as 1.4 (3.30E-04).
With `CCCCCCCCCCCCCCCC(=O)NCCCC[C@@H](N)C(=O)NCCCNCCCCNCCCN` [AMXT 1501], the “impact on CPS” value in experiment [5] is “had no impact on CPS”. For the same molecule, the “impact on CPS” value in experiment [6] is recorded as “had no impact on CPS”. In addition, the “impact on CPS” value in experiment [7] was “had no impact on CPS”. In experiment [1] (1/2 MIC AMXT 1501 (7.4 µM)), the “less capsule compared to untreated controls (densitometry of immunoblots)” value was 61%. Further, in experiment [1], the “total CPS (capsule) by immunoblot” value is “Loss of capsule”. Also, the MIC in experiment [2] (read-out: 1/2 MIC) turned out to be 7.4 µM (≈ 4.21 µg/mL). Also, the “intracellular glucose (peak intensity)” value in experiment [4] (1/8 MIC DFMO (34 mM), 1/2 MIC AMXT 1501 (7.4 µM)) is reported as “increases glucose level”. Further, the “intracellular glucuronic acid (peak intensity)” value in experiment [4] (1/8 MIC DFMO (34 mM), 1/2 MIC AMXT 1501 (7.4 µM), separately or in combination) was “significantly depleted”. Moreover, in experiment [4] (setting [9]), the “Agmatine, fold change treated D39 /D39” value was -1.5 (0.006); the “Arginine, fold change treated D39 /D39” value was -0.1 (0.546); the “Cadaverine, fold change treated D39 /D39” value was -1.2 (4.61E-04); the “Lysine, fold change treated D39 /D39” value was -0.5 (3.48E-04). In addition, in experiment [4] (setting [9]), the “N-acetyl spermidine, fold change treated D39 /D39” value is listed as -1.6 (0.022); the “N-carbamoyl putrescine, fold change treated D39 /D39” value is given as -1.8 (0.016); the “Ornithine, fold change treated D39 /D39” value is reported as -0.5 (0.004); the “Putrescine, fold change treated D39 /D39” value is on record as -1.4 (0.001). Moreover, in experiment [4] (setting [9]), the “Spermidine, fold change treated D39 /D39” value is reported as -5.5 (0.006) and the “Spermine, fold change treated D39 /D39” value is reported as -0.3 (0.455).
Turning to `NCCCCCN` [Cadaverine, cadaverine], in experiment [3], the Michaelis-Menten constant (Km) is 1610 ± 280 µM.
As for `NCCCCN` [Putrescine, putrescine], the Km in experiment [3] was 3550 ± 280 µM.
As for `N=C(N)NCCC[C@](N)(C(=O)O)C(F)F` [DFMA, α-difluoromethylarginine], the IC50 (commonly the concentration that gives 50% inhibition) was found to be 1.1 ± 0.1 µM in experiment [8] (arginine to agmatine, 10 mM substrate, 15 min, 37 °C); 56.6 ± 11.9 µM in experiment [8] (lysine to cadaverine, 10 mM substrate, 15 min, 37 °C); 40.5 ± 11.6 µM in experiment [8].
